Reference: patent US20110039333A1, “DEFINED CONDITIONS FOR HUMAN EMBRYONIC STEM CELL CULTURE AND PASSAGE” (UNIVERSITY OF SOUTHERN CALIFORNIA, priority 2009, published 2011)

Experiments:
[1] = tested on: HES2 cells; assay: Clonal proliferation assay, HES2 cells in MEF-CM; type: cell-based, human; details: ID-8 at 0.5 μM; single cells on Matrigel in MEF-CM; control ~0.6%
Experimental: The clonal proliferation assay was described previously. Briefly, the hES cells in feeder-free culture were dissociated completely with 0.05% trypsin-EDTA.(Invitrogen), and are seeded at 10^4 cells/well in Matrigel-coated 6-well culture plates and cultured in MEF-conditioned medium. Various concentration of Wnt3a (purified in our laboratory or purchased from Peprotech), IQ-1, ID-8 and/or ICG-001 (all three chemicals were synthesized in our laboratory), were supplemented into the culture media at the onset of seeding, then continuously until the end of culturing. For all assays, the cell and colony morphology were examined under microscope, and the replating efficiency was examined by counting the number of colonies after 7 days of culture.
For quantitative PCR analysis, total RNA was isolated from hESCs cultured in feeder-free condition with or without Wnt3a and Id-8 using RNeasy micro kit (Qiagen). RT was performed with Omniscript (Qiagen) and quantitative RT-PCR was then performed, using each gene-specific primer/probe mix (TaqMan Gene Expression Assays), TaqMan 2× Master Mix, and ABI PRISM 7900 Sequence Detection system (Applied Biosystems, CA) according manufacture's protocol. The PCR data was analyzed by delta/delta OT method and normalized with PPIA expression.
The hESC colonies were fixed with 4% paraformaldehyde, and alkaline phosphatase (ALP) activity was determined with a Vector Blue Alkaline Phosphatase Substrate Kit (Vector Laboratories, CA). Immunostaining was carried out with the following primary antibodies: TRA-1-60 and TRA-1-80 (Santa Cruz Biotechnology, CA), anti-stage specific embryonic antigen (SSEA)-3 and -4 (Developmental Studies Hybridoma Bank at the University of Iowa), anti-OCT-3 (clone C-10, Santa Cruz Biotechnology, CA), or goat anti-Nanog (R&D systems, MN). Then, samples were incubated with Alexa Fluor 488- or 594-conjugated (Molecular Probes, NY), then detected with indirect immunofluorscence microscopy.
The effects of canonical Wnt ligand, Wnt3a and several small molecule Wnt signaling modulators in a clonal proliferation assay were investigated first (9) (FIG. 3A). When HES2 cells (2) were dissociated into single cells and seeded on Matrigel-coated plates in mouse embryonic fibroblast-conditioned medium (MEF-CM)(20), the colony forming efficiency was ˜0.6% (replating efficiency: colony number/seeded cell number). Supplementation with Wnt3a enhanced colony formation (˜1% at 100 ng/ml). The colonies were larger and consisted of more cells. […] ID-8, which was identified in the same screen as IQ-1 (21), also enhances the β-catenin/CBP association and increased hESC survival (˜1.1% at 0.5 μM). […] To examine the scope of this effect in hESC, clonal proliferation assays were performed with the additional hESC lines, HES3 (2) and H9 (1) (FIG. 3H).

[2] = tested on: hESC; assay: Xeno-free, feeder-free hESC culture (minimal medium development); type: cell-based, human; details: minimal medium (DMEM/F-12, bFGF, Wnt3a, ITS) without ID-8
Experimental: For xeno-free, feeder-free culture, the cells were passaged into 2 μg/cm^2 human Fibronectin (Sigma), 10-20 μg/cm^2 human Laminin (Sigma) and 10 μg/cm^2 human Vitronectin (Invitrogen)-coated culture dishes and cultured in DMEM/F-12 supplement with L-glutamine, a non-essential amino acid, ITS, 20-25 ng/ml Wnt3a and 500 nM ID-8, and with or without 4 ng/ml FGF2. The culture medium was changed daily. Some of colonies became detached from the edge region 5 to 7 days after culturing, and then cells were treated with 0.5 mg/ml GRGDTP peptides (AnaSpec) or 1 μg/ml Echistatin (Sigma) and incubated at 37° C. for 15-45 minutes until almost all of the colony starts to detach from the edge region. The colonies were detached and partially dissociated into clumps by gentle pipetting, and then the clumps were washed with culture medium, collected by centrifugation and seeded on new dishes as 1 to 2 split ratio.
The development of a xeno-free, feeder-free hESC culture system using ID-8 and Wnt activation was investigated. After extensive investigation, the inventors determined that the minimal media required to maintain hESC proliferation and pluripotency consisted of DMEM/F-12 with bFGF (4 ng/ml), Wnt3a (25 ng/ml), ID-8 (0.5 μM) and Insulin-Transferrin-Selenium (ITS). […] The inventors next sought to replace the Wnt ligand with several small molecule GSK-3 inhibitors, BIO (11), CHIR99021 (22) and Kenpaullone (23) in ID-8 containing medium with or without bFGF. […] However, in contrast to Wnt ligand containing medium, hESCs became unstable after few passages, subsequently stabilized and maintained pluripotent cores were surrounded with spontaneously differentiated cells (FIG. 5). Under these conditions, manually selection of undifferentiated hESC colonies from the surrounding cells was required at every passage to maintain pluripotent cultures.
Initially, cells were maintained on Matrigel, a complex animal derived ECM. However, it would be advantageous to use a defined xeno-component-free ECM. […] Because of the extremely low level of protein in these cultures (i.e. no albumin and matrigel), the hESCs are extremely sensitive to damage caused by the dissociation enzymes normally used for passaging. […] To develop a compatible passaging process, the inventors investigated several integrin antagonists.

COc1ccc(-n2c(C)c([N+](=O)[O-])c3ccc(O)cc32)cc1 [ID-8]
replating efficiency (colony number/seeded cell number), hESC survival [1]: ~1.1%
maintenance of hESC colonies [2]: no colonies were maintained
